# Entries after “also recorded” stand apart in the source; their conditions may differ.
# What was measured:
# Hantaan virus (HTNV) = format: cell-based
# [1] = tested on: Crimean Congo Hemorraghic fever virus (CCHFV); format: cell-based
# Human adenosine kinase [2] = biological target: T1, Human adenosine kinase (Homo sapiens, UniProt P55263); assay: Adenosine kinase activity with selected nucleoside analogs (conversion to 5'-monophosphate, HPLC); format: biochemical; conditions: 100 μM of each compound and ATP, 37° C., conversion to 5'-monophosphate by HPLC
# human CEM cells = assay: Metabolism to phosphorylated intracellular metabolites in human cells
# influenza A/Udorn/72 = format: cell-based, Influenza A H3N2
# Human adenosine kinase [3] = biological target: T1, Human adenosine kinase; assay: Radiolabeled TA-18 as substrate for human adenosine kinase; format: biochemical; conditions: radiolabeled compound, 10 μM
# [4] = tested on: GTP levels in human cells; assay: Intracellular GTP levels in human cells; format: cell-based; conditions: for effect of treatment on GTP levels in human cells: 10 μM
# T1 sequence (P55263 whole entry): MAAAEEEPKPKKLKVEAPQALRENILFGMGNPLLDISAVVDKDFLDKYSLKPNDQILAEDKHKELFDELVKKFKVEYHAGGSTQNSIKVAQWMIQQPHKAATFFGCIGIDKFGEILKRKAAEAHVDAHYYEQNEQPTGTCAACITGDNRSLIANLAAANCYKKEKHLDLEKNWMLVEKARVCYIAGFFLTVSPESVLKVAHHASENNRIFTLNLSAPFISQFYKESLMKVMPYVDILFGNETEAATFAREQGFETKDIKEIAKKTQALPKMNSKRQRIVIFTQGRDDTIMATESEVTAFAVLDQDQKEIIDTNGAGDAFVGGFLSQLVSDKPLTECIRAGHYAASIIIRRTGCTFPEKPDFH
smiles,measurement,setting,value
"O=c1c2ncn([C@@H]3O[C@H](CO)[C@@H](O)[C@H]3O)c2ncn1-c1cccc(F)c1 [IA-3, N^1-(3-fluorophenyl)-inosine]",antiviral activity against HTNV,Hantaan virus (HTNV),showed antiviral activity
"Nc1c(C(=O)Nc2cccc(F)c2)ncn1[C@@H]1O[C@H](CO)C(O)C1O (stereo partly drawn) [RN-3, 5-amino-4-N-3-fluorophenylcarboxamide-1-β-D-ribofuranosyl-1H-imidazole]",antiviral activity against HTNV,Hantaan virus (HTNV),showed activity
O=[N+]([O-])c1ncn([C@@H]2O[C@H](CO)C(O)[C@@H]2O)n1 (some centres unmarked) [TA-1],antiviral activity against CCHFV,[1],showed antiviral activity
"CC(=O)c1ncn([C@@H]2O[C@H](CO)[C@@H](O)[C@H]2O)n1 [TA-13, 1-(1-β-D-ribofuranosyl-[1,2,4]triazole-3-yl)-ethanone]",Activity as a percent of ribavirin,Human adenosine kinase [2],8% of ribavirin
"OC[C@H]1O[C@@H](n2cnc(C(O)c3ccccc3)n2)C(O)[C@H]1O (stereo partly drawn) [TA-14, 1-(1-β-D-ribofuranosyl-[1,2,4]triazol-3-yl)-phenylmethanol]",antiviral activity against HTNV,Hantaan virus (HTNV),showed antiviral activity
"C#Cc1ncn([C@@H]2O[C@H](CO)[C@@H](O)[C@H]2O)n1 [TA-18, 3-ethynyl-1-(β-D-ribofuranosyl)-[1,2,4]triazole]",antiviral activity against HTNV,Hantaan virus (HTNV),showed antiviral activity
same,antiviral activity against CCHFV,[1],showed antiviral activity
same,conversion to phosphorylated metabolites in human cells,"human CEM cells; human CEM cells, 10 μM",converted to phosphorylated metabolites
same,antiviral activity against influenza,influenza A/Udorn/72,showed antiviral activity
same,substrate for human adenosine kinase (radiolabeled TA-18),Human adenosine kinase [3],it is a substrate for human adenosine kinase; also recorded: subs ate for human adenosine kinase
same,Activity as a percent of ribavirin,Human adenosine kinase [2],25% of ribavirin
same,effect of treatment on GTP levels in human cells,[4],decline in GTP levels
same,potency of metabolites in reducing GTP levels compared with ribavirin metabolites,[4]; inferred from metabolite amounts and GTP decline,more potent in reducing GTP levels than the ribavirin metabolites
"NC(=O)CC(O)c1ncn([C@@H]2O[C@H](CO)[C@@H](O)[C@H]2O)n1 (stereo partly drawn) [TA-20, 3-(1-β-D-ribofuranosyl-[1,2,4]triazol-3-yl)-3-hydroxypropionamide]",Activity as a percent of ribavirin,Human adenosine kinase [2],5% of ribavirin
"Nc1ncnc2c1c(I)cn2[C@@H]1O[C@H](CO)[C@@H](O)[C@H]1O [iodotubercidin, reference compound]",effect of adenosine kinase inhibition with iodotubercidin on the metabolism of TA-18,human CEM cells; human cells,inhibited the metabolism of TA-18
same,effect of adenosine kinase inhibition with iodotubercidin on the decline in GTP levels caused by TA-18,[4],prevented the decline in GTP levels caused by TA-18
"NC(=O)c1ncn([C@@H]2O[C@H](CO)[C@@H](O)[C@H]2O)n1 [ribavirin, reference compound]",effect of treatment on GTP levels in human cells,[4],decrease in GTP levels
